One series concerns the target T1, KDM5A protein (Homo sapiens, UniProt P29375).
T1 construct: purchased BPS Bioscience 50110
In words: Biochemical KDM5A inhibition assay (HTRF). The protocol:
Using 384-well white ProxiPlates (PerkinElmer), representative compounds were characterized for their inhibition of KDM5A using HTRF® technology (Cisbio Bioassays). Briefly, the test compounds, reference compounds, and DMSO control (typical compound concentration range 300 pM-10 μM, final assay concentration (FAC) of DMSO 0.5%) were added to 384-well plate by the Echo® acoustic dispensing platform (Labcyte). Three (3) μ1 of KDM5A protein (BPS Bioscience, Cat #50110)(10 or 20 nM FAC) in assay buffer (50 mM MES, 50 mM NaCl, 2 mM ascorbic acid, 0.01% v/v Tween 20, pH 6.5) was added to wells and plates were incubated for 10 minutes at room temperature. Then, 3 μl of biotin-labelled H3K4-me3 substrate (Anaspec Cat #AS-64357-1; 100 nM FAC), alpha-ketoglutaric acid ([…]) and Fe(II)SO4 (FAC 100 μM) in assay buffer was added and plates were incubated for 60 minutes at room temperature. The reaction was stopped with the addition of 6 μl of anti-H3-[…]-Eu(K) (Cisbio Bioassays Cat #61KA2KAE; 0.025 μg/ml FAC)+Streptavidin XL665 (Cisbio Bioassays Cat #610SAXLA; 0.5 μg/ml FAC) in HTRF detection buffer (Cisbio Bioassays Cat #62SDBRDD). The mixture was incubated for 90 minutes at room temperature before 340 nm excitation and measurement of dual emission at 620 nm and 665 nm. The raw data (a 665 nm and a 620 nm reading from each well) for individual assay plates were analyzed. The ratio of emissions was calculated using the following calculation: Ratio=(665 nm emission/620 nm emission)*10000. Using DMSO control (maximum response or 0% inhibition) and 1 μM reference control compound (minimum response or 100% inhibition), percentage inhibition values for each well were calculated using the median values of the minimum and maximum control wells and the following calculation: % Inhibition=(Well ratio-max control ratio)/(min control ratio-max control ratio)*100. Compound IC50 values were calculated from graphs of % inhibition plotted against compound concentration, using a four parameter curve fit.
Background: TR-FRET usually uses a lanthanide donor and a delayed reading to cut background.

A short description of series [1]: Permeability in wild type MDCK cell lines (MDCK-WT). Format: in vitro ADME. To be noted: dog, MDCK, pH 7.4, apical to basal, 10 μM test compound. The protocol:
Wild type MDCKII cells were seeded onto an apical chamber 3 days prior to running the assay at a density of 2.3×10^5 cells per well. The integrity of cell monolayers was evaluated by examining the permeability of lucifer yellow assay using a Spectramax Gemini XS with excitation and emission at 426 nm and 538 nm respectively. Permeation of Lucifer Yellow should be ≤10×10^−6 cm/s for the experimental data to be accepted. The cell monolayers were preincubated in transport buffer (HBSS with CaCl2 and MgCl2)+25 mM HEPES, adjust to pH 7.4) at 37° C. or more than 20 min. Transport experiment was initiated by adding test compound solution (10 μM) to the apical chamber. Samples were obtained from basal chamber at 60 min, followed by addition of ice-cold acetonitrile containing internal standard. LC-MS/MS analysis was conducted as specified below. Standard calibration samples were prepared using the same matrix and analysed in the same manner. [table] […] Papp(cm/s)=(dCB/dt)×VB/(A×CA) dCB/dt is the slope of the cumulative concentration in basal side versus time VB is the volume of the basal compartment A is the area of the membrane surface area CA is the initial concentration in apical side

Setting [2] is: 20 nM enzyme concentration, read-out: IC50 value.
Where [3] appears, read: comparative compounds, read-out: permeabilities in MDCK-WT of comparative compound.
[4] abbreviates: comparative compounds, enzyme concentration not stated, read-out: IC50 values (μM) of comparative compound.

This passage reports IC50 and Papp A→B results from patent US20220289751A1, “COMPOUND HAVING KDM5 INHIBITORY ACTIVITY AND PHARMACEUTICAL USE THEREOF” (ONO PHARMACEUTICAL CO., LTD., priority 2019, published 2022).

Like-named read-outs stand apart in the source and are kept apart here.

By IC50 is commonly meant the point on the concentration scale where inhibition reaches its midpoint.

T1 sequence (P29375 whole entry): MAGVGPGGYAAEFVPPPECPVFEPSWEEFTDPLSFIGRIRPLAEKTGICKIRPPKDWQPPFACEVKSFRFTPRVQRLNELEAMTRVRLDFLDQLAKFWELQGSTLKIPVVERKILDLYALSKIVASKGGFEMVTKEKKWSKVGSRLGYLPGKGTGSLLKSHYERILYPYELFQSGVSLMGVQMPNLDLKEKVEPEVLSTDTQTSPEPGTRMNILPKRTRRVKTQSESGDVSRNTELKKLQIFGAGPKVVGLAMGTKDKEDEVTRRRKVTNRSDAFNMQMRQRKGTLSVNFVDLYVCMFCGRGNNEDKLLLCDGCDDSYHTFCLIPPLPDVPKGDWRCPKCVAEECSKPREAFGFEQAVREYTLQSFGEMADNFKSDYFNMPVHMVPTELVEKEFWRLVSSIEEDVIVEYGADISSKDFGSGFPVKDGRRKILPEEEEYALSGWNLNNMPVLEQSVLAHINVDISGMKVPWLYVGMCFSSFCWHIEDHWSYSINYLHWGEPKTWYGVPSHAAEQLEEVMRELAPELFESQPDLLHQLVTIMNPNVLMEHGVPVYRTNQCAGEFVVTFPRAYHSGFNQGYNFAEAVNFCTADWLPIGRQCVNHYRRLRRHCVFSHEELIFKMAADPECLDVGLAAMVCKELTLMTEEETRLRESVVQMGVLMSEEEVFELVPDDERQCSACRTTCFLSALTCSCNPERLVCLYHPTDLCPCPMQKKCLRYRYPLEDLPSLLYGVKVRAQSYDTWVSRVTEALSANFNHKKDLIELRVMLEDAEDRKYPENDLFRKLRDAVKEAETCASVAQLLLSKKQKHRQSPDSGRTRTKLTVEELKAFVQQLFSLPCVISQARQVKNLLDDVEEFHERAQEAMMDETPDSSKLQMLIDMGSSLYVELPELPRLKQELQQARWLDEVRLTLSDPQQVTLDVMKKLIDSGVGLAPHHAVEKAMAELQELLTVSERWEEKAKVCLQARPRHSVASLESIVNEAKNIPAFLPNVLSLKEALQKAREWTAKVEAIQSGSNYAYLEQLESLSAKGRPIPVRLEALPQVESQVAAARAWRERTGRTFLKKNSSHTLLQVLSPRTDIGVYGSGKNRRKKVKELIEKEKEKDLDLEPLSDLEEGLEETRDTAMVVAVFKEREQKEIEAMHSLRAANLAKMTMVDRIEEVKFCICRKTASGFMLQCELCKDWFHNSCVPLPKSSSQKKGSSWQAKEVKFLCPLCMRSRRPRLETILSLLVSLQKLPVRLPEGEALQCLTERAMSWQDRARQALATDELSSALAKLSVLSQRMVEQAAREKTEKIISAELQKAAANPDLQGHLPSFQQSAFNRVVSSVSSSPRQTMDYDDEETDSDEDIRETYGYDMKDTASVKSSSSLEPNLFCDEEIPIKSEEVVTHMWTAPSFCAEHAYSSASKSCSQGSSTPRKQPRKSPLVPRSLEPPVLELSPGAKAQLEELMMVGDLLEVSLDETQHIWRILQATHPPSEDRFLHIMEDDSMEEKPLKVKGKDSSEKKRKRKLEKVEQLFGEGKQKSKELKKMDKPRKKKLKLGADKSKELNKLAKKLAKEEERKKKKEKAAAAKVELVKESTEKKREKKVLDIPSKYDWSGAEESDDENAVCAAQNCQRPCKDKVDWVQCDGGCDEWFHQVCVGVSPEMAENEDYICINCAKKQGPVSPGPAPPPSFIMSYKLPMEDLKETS

For the compound `CC(C)n1c(N(C)CCC2CCCO2)nn2c(-c3cn[nH]c3)cnc2c1=O` (single isomer, unassigned) [EXAMPLE 62, 3-Isopropyl-2-(methyl(2-(tetrahydrofuran-2-yl)ethyl)amino)-7-(1H-pyrazol-4-yl)imidazo[2,1-f][1,2,4]triazin-4(3H)-one], the IC50 at KDM5A protein (setting [2]) turned out to be 1 µM.
For `CC(c1ccccc1)c1cc(C(=O)N2CC3(C2)CN(C(=O)C2CC2)C3)n[nH]1` (single isomer, unassigned) [EXAMPLE 89, (6-(Cyclopropanecarbonyl)-2,6-diazaspiro[3.3]heptan-2-yl)(5-(1-phenylethyl)-1H-pyrazol-3-yl)methanone], the Papp A→B at 60 min, 10 μM in series [1] (read-out: MDCK-WT (Papp)) was found to be 9 ×10⁻⁶ cm/s.
Consider `CC(C)c1cc(C(=O)N2CC3(C2)CN(C(=O)C2CC2)C3C)n[nH]1` (single isomer, unassigned) [EXAMPLE 92, [2-(Cyclopropanecarbonyl)-3-methyl-2,6-diazaspiro[3.3]heptan-6-yl]-(5-isopropyl-1H-pyrazol-3-yl)methanone], for which the Papp A→B at 60 min, 10 μM in series [1] (read-out: MDCK-WT (Papp)) was found to be 8 ×10⁻⁶ cm/s. At KDM5A protein (setting [2]), the IC50 was determined as 0.6 µM.
For `O=C(NC1CN(C(=O)c2cc(C3CC3)[nH]n2)C1)C1CC12CC2` (single isomer, unassigned) [EXAMPLE 104, N-(1-(5-cyclopropyl-1H-pyrazole-3-carbonyl)azetidin-3-yl)spiro[2.2]pentane-1-carboxamide], the Papp A→B at 60 min, 10 μM in series [1] (read-out: MDCK-WT (Papp)) is 8 ×10⁻⁶ cm/s.
Regarding `CC(C)c1c(-c2cnn(CC3CC3)c2)[nH]c2c(C#N)cnn2c1=O` [5-(1-(cyclopropylmethyl)-1H-pyrazol-4-yl)-6-isopropyl-7-oxo-4,7-dihydropyrazolo[1,5-a]pyrimidine-3-carbonitrile, reference compound], the Papp A→B at 60 min, 10 μM in series [1] (setting [3]) worked out at 5.6 ×10⁻⁶ cm/s. Besides, the IC50 on KDM5A protein (setting [4]) was found to be 0.005 µM.
Consider `CC(C)c1cc(C(=O)N2CC[C@@H](NC(=O)C3CC3)C2)[nH]n1` [(R)—N-(1-(3-isopropyl-1H-pyrazole-5-carbonyl)pyrrolidin-3-yl)cyclopropane carboxamide, reference compound], for which the Papp A→B at 60 min, 10 μM in series [1] (setting [3]) stood at 4.9 ×10⁻⁶ cm/s. Besides, the IC50 on KDM5A protein (setting [4]) stood at 0.02 µM.
`CC(C)n1c(N2CC(c3ccccc3)C2)nn2c(-c3cnc[nH]3)cnc2c1=O` [EXAMPLE 8, 7-(1H-imidazol-5-yl)-3-isopropyl-2-(3-phenylazetidin-1-yl)imidazo[2,1-f][1,2,4]triazin-4(3H)-one]: the Papp A→B at 60 min, 10 μM in series [1] (read-out: MDCK-WT (Papp)) was 23 ×10⁻⁶ cm/s. Further, the IC50 on KDM5A protein (setting [2]) is 0.04 µM.
Take `CC(C)n1c(-c2cnn(CC3CC3)c2)nn2c(-c3cnc[nH]3)cnc2c1=O` [EXAMPLE 19, 2-(1-(Cyclopropylmethyl)-1H-pyrazol-4-yl)-7-(1H-imidazol-5-yl)-3-isopropylimidazo[2,1-f][1,2,4]triazin-4(3H)-one]: the IC50 at KDM5A protein (setting [2]) was 0.03 µM.
As to `CC(C)n1c(-c2cnn(CC3CC3)c2)nn2c(-c3cn[nH]c3)cnc2c1=O` [EXAMPLE 20, 2-(1-(Cyclopropylmethyl)-1H-pyrazol-4-yl)-3-isopropyl-7-(1H-pyrazol-4-yl)imidazo[2,1-f][1,2,4]triazin-4(3H)-one], the Papp A→B at 60 min, 10 μM in series [1] (read-out: MDCK-WT (Papp)) was 25 ×10⁻⁶ cm/s. The IC50 at KDM5A protein (setting [2]) came to 0.04 µM.
The like results for `CC(C)n1c(-c2ccc3c(ccn3C)c2)nn2c(-c3cn[nH]c3)cnc2c1=O` [EXAMPLE 21, 3-Isopropyl-2-(1-methyl-1H-indol-5-yl)-7-(1H-pyrazol-4-yl)imidazo[2,1-f][1,2,4]triazin-4(3H)-one] were, in that order, 10 ×10⁻⁶ cm/s and 0.04 µM.
In the case of `CC(C)n1c(-c2cccs2)nn2c(-c3cnc[nH]3)cnc2c1=O` [EXAMPLE 26, 7-(1H-Imidazol-5-yl)-3-isopropyl-2-(thiophen-2-yl)imidazo[2,1-f][1,2,4]triazin-4(3H)-one], in series [1] (read-out: MDCK-WT (Papp)), the Papp A→B at 60 min, 10 μM came to 20 ×10⁻⁶ cm/s. Further, the IC50 at KDM5A protein (setting [2]) is 0.2 µM.
On to `CC(C)n1c(-c2cccs2)nn2c(-c3cn[nH]c3)cnc2c1=O` [EXAMPLE 27, 3-Isopropyl-7-(1H-pyrazol-4-yl)-2-(thiophen-2-yl)imidazo[2,1-f][1,2,4]triazin-4(3H)-one], for which the IC50 at KDM5A protein (setting [2]) is 0.05 µM.
`CCNC(=O)N1CC2(C1)CN(C(=O)c1cc(C(C)C)[nH]n1)C2` [EXAMPLE 41, N-Ethyl-6-(5-isopropyl-1H-pyrazole-3-carbonyl)-2,6-diazaspiro[3.3]heptane-2-carboxamide]: at KDM5A protein (setting [2]), the IC50 is 0.03 µM.
With `CC(=O)NCCn1cc(-c2nn3c(-c4cn[nH]c4)cnc3c(=O)n2C(C)C)cn1` [EXAMPLE 47, N-(2-(4-(3-isopropyl-4-oxo-7-(1H-pyrazol-4-yl)-3,4-dihydroimidazo[2,1-f][1,2,4]triazin-2-yl)-1H-pyrazol-1-yl)ethyl)acetamide], on KDM5A protein (setting [2]), the IC50 worked out at 0.05 µM.
Still for that read-out and setting: next, `Cc1ccc(-n2cc(-c3cnc4c(=O)n(C(C)C)c(C)nn34)cn2)nc1` [EXAMPLE 67, 3-Isopropyl-2-methyl-7-(1-(5-methylpyridin-2-yl)-1H-pyrazol-4-yl)imidazo[2,1-f][1,2,4]triazin-4(3H)-one]: 2.9 µM; `CC(C)c1cc(C(=O)c2cnn3c(=O)c(C(C)C)c(-c4ccccc4)n(C)c23)n[nH]1` [EXAMPLE 68, 6-Isopropyl-3-(5-isopropyl-1H-pyrazole-3-carbonyl)-4-methyl-5-phenylpyrazolo[1,5-a]pyrimidin-7 (4H)-one]: 0.4 µM.
Regarding `O=C(c1cc(C2CCCCC2)[nH]n1)N1CC2(C1)CN(C(=O)C1CC1)C2` [EXAMPLE 73, (5-Cyclohexyl-1H-pyrazol-3-yl)(6-(cyclopropanecarbonyl)-2,6-diazaspiro[3.3]heptan-2-yl)methanone], in series [1] (read-out: MDCK-WT (Papp)), the Papp A→B at 60 min, 10 μM came to 16 ×10⁻⁶ cm/s.
As to `CC(C)c1cc(C(=O)N2CC(NC(=O)C3CC3)C2)n[nH]1` [EXAMPLE 80, N-(1-(5-Isopropyl-1H-pyrazole-3-carbonyl)azetidin-3-yl)cyclopropanecarboxamide], the IC50 on KDM5A protein (setting [2]) was 0.2 µM.
Regarding `CC(C)n1cnc(C(=O)N2CC3(C2)CN(C(=O)C2CC2)C3)c1` [EXAMPLE 81, (6-(Cyclopropanecarbonyl)-2,6-diazaspiro[3.3]heptan-2-yl)(1-isopropyl-1H-imidazol-4-yl)methanone], at KDM5A protein (setting [2]), the IC50 came to 0.1 µM.
Take `CC(C)c1cc(C(=O)N2CC3(C2)CN(C(=O)C2(C)CC2)C3)n[nH]1` [EXAMPLE 96, (5-Isopropyl-1H-pyrazol-3-yl)(6-(1-methylcyclopropane-1-carbonyl)-2,6-diazaspiro[3.3]heptan-2-yl)methanone]: the IC50 on KDM5A protein (setting [2]) worked out at 0.03 µM.
For the compound `CC(C)c1cc(C(=O)N2CC3(C2)CN(C(=O)c2cccs2)C3)n[nH]1` [EXAMPLE 99, (5-Isopropyl-1H-pyrazol-3-yl)(6-(thiophene-2-carbonyl)-2,6-diazaspiro[3.3]heptan-2-yl)methanone], the Papp A→B at 60 min, 10 μM in series [1] (read-out: MDCK-WT (Papp)) came out at 20 ×10⁻⁶ cm/s.
Regarding `CC(=O)NCCn1cc(-c2nn3c(-c4c[nH]cn4)cnc3c(=O)n2C(C)C)cn1` [EXAMPLE 121, N-(2-(4-(7-(1H-Imidazol-4-yl)-3-isopropyl-4-oxo-3,4-dihydroimidazo[2,1-f][1,2,4]triazin-2-yl)-1H-pyrazol-1-yl)ethyl)acetamide], the IC50 on KDM5A protein (setting [2]) was determined as 0.09 µM.
On to `CC(C)c1cc(C(=O)N2CC3(C2)CN(C(=O)c2nn(C)cc2F)C3)n[nH]1` [EXAMPLE 126, [2-(4-Fluoro-1-methyl-pyrazole-3-carbonyl)-2,6-diazaspiro[3.3]heptan-6-yl]-(5-isopropyl-1H-pyrazol-3-yl)methanone], for which the IC50 on KDM5A protein (setting [2]) came out at 0.008 µM.
As for `CC(C)c1cc(C(=O)N2CC3(CON(C(=O)C(C)(C)C)C3)C2)n[nH]1` [EXAMPLE 132, 1-[2-(5-Isopropyl-1H-pyrazole-3-carbonyl)-6-oxa-2,7-diazaspiro[3.4]octan-7-yl]-2,2-dimethyl-propan-1-one], the Papp A→B at 60 min, 10 μM in series [1] (read-out: MDCK-WT (Papp)) is 19 ×10⁻⁶ cm/s.
